{
  "source": "patent US20040163143A1",
  "about": "“Method for efficiently producing transgenic plant using auxin precursor” (NIPPON PAPER INDUSTRIES CO., LTD., priority 2002, published 2004)",
  "key": {"[1]": {"tested_on": "E. globulus hypocotyl sections", "experiment": "E. globulus gene introduction test, vector pIAH6 (ipt + iaaH + GUS), adventitious bud redifferentiation and GUS staining", "format": "cell-based, Eucalyptus globulus", "conditions": "for B/A Redifferentiation ratio / C/A Gene introduction ratio / C/B Selection efficiency: section basis", "protocol": "Using a plasmid pIAH6 as a vector having a GUS gene as a model of a desired gene and an ipt gene and an iaaH gene as selectable marker genes, a transformant was produced by carrying out gene introduction into Eucalyptus globulus (hereinafter referred to as “E. globulus”) by the method of the present invention. Seeds of E. globulus from Chile were sterilized by soaking in 70% ethanol for about 1 minute and then soaking with stirring in a 2% aqueous sodium hypochlorite solution for about 4 hours, washed thoroughly with sterile water, inoculated on an MS agar medium to which 0.5 mg/l zeatin had been added and stored in a refrigerator at 4° C. for 2 days to accelerate germination, and then the germination was carried out by culturing at 25° C. under light conditions of about 10 μmol/m^2/s in light intensity. One to two weeks after the inoculation of the seeds onto the germination medium, hypocotyls were collected by cutting out apical buds, cotyledons and roots of the germinated seedlings, and the hypocotyls were cut into sections of about 5 mm to be used as samples for gene introduction and subjected to the following test. A. tumefaciens EHA105 introduced with the plasmid pIAH6 in the above item I was cultured overnight in the YEB liquid medium and then diluted to OD630 =0.5 with EG basal medium, and the sections of hypocotyl prepared in the above were soaked in the cell suspension. Next, each of the sections after removing excess cell suspension was co-cultured with Agrobacterium on an agar medium (agar 8.5 g/l) prepared by adding 1.0 mg/l zeatin, 0.05 mg/l NAA and 40 mg/l acetosyringone to the EG basal medium, at 25° C. for 3 days in the dark to thereby infect each section with the pIAH6-introduced Agrobacterium. In this case, a modified MS medium having an ammonia nitrogen/nitrate nitrogen concentration ratio of 1:3 (5 mM NH4, 15 mM NO3) was supplemented with 20 g/l sucrose and used as the EG basal medium. The sections after infection culturing were put on an EG basal agar medium (agar 8.5 g/l) supplemented with 500 mg/l ticarcillin and 1 μM or 10 μM of an auxin precursor analogue NAM, and the culturing was continued at 25° C. under light conditions of 30 to 40 μmol/m^2/s in light intensity while sub-culturing at an interval of 2 weeks using the same medium. Among these sections, the quicker ones redifferentiated adventitious buds after about 2 months of the Agrobacterium infection. Three months after the Agrobacterium infection, in order to examine expression of the GUS gene used as a model of the desired gene, the redifferentiated adventitious buds were subjected to a GUS staining test in accordance with the method of Jefferson et al. (Plant Mol. Biol. Rep., 5: 387-405 (1987)), and the degree of formation of desired gene-introduced adventitious buds was judged by examining the number of stained adventitious buds (the number of adventitious buds expressing the desired gene). An E. globulus gene introduction test was carried out in the same manner as in Example 1, except that the hypocotyl sections after the Agrobacterium infection were cultured using the EG basal agar medium (agar 8.5 g/l) supplemented with 500 mg/l ticarcillin and 0 μM, 1 μM or 10 μM NAA as auxin."}, "[2]": {"tested_on": "E. globulus hypocotyl sections", "experiment": "E. globulus gene introduction test, vector pIPT10 (ipt only + GUS), adventitious bud redifferentiation and GUS staining", "format": "cell-based, Eucalyptus globulus", "conditions": "for B/A Redifferentiation ratio / C/A Gene introduction ratio / C/B Selection efficiency: section basis", "protocol": "Seeds of E. globulus from Chile were sterilized by soaking in 70% ethanol for about 1 minute and then soaking with stirring in a 2% aqueous sodium hypochlorite solution for about 4 hours, washed thoroughly with sterile water, inoculated on an MS agar medium to which 0.5 mg/l zeatin had been added and stored in a refrigerator at 4° C. for 2 days to accelerate germination, and then the germination was carried out by culturing at 25° C. under light conditions of about 10 μmol/m^2/s in light intensity. One to two weeks after the inoculation of the seeds onto the germination medium, hypocotyls were collected by cutting out apical buds, cotyledons and roots of the germinated seedlings, and the hypocotyls were cut into sections of about 5 mm to be used as samples for gene introduction and subjected to the following test. A. tumefaciens EHA105 introduced with the plasmid pIAH6 in the above item I was cultured overnight in the YEB liquid medium and then diluted to OD630 =0.5 with EG basal medium, and the sections of hypocotyl prepared in the above were soaked in the cell suspension. Next, each of the sections after removing excess cell suspension was co-cultured with Agrobacterium on an agar medium (agar 8.5 g/l) prepared by adding 1.0 mg/l zeatin, 0.05 mg/l NAA and 40 mg/l acetosyringone to the EG basal medium, at 25° C. for 3 days in the dark to thereby infect each section with the pIAH6-introduced Agrobacterium. In this case, a modified MS medium having an ammonia nitrogen/nitrate nitrogen concentration ratio of 1:3 (5 mM NH4, 15 mM NO3) was supplemented with 20 g/l sucrose and used as the EG basal medium. The sections after infection culturing were put on an EG basal agar medium (agar 8.5 g/l) supplemented with 500 mg/l ticarcillin and 1 μM or 10 μM of an auxin precursor analogue NAM, and the culturing was continued at 25° C. under light conditions of 30 to 40 μmol/m^2/s in light intensity while sub-culturing at an interval of 2 weeks using the same medium. Among these sections, the quicker ones redifferentiated adventitious buds after about 2 months of the Agrobacterium infection. Three months after the Agrobacterium infection, in order to examine expression of the GUS gene used as a model of the desired gene, the redifferentiated adventitious buds were subjected to a GUS staining test in accordance with the method of Jefferson et al. (Plant Mol. Biol. Rep., 5: 387-405 (1987)), and the degree of formation of desired gene-introduced adventitious buds was judged by examining the number of stained adventitious buds (the number of adventitious buds expressing the desired gene). An E. globulus gene introduction test was carried out in the same manner as in Example 1, except that the hypocotyl sections after the Agrobacterium infection were cultured using the EG basal agar medium (agar 8.5 g/l) supplemented with 500 mg/l ticarcillin and 0 μM, 1 μM or 10 μM NAA as auxin. An E. globulus gene introduction test was carried out in the same manner as in Example 1 or Comparative Example 1, except that a plasmid pIPT10 having only the ipt gene as the selectable marker gene was used as the vector. Also, the vector also has the GUS gene as a model of the desired gene. Structure of T-DNA region of the pIPT10 used in this case is shown in FIG. 2, and results of the gene introduction test are shown in Table 3."}, "[3]": {"conditions": "NAA 1 μM in medium, 62 sections tested"}, "[4]": {"conditions": "NAA 10 μM in medium, 40 sections tested"}},
  "data": [
    {"smiles": "O=C(O)Cc1cccc2ccccc12", "note": "[NAA, naphthaleneacetic acid]", "values": [
      {"measurement": "B Adventitious bud differentiated (number of sections)", "setting": "[1]; [3]", "result": "9 number of sections"},
      {"measurement": "C GUS + adventitious bud differentiated (number of sections)", "setting": "[1]; [3]", "result": "2 number of sections"},
      {"measurement": "B/A Redifferentiation ratio", "setting": "[1]; NAA 1 μM in medium", "result": 14.5, "unit": "%"},
      {"measurement": "C/A Gene introduction ratio", "setting": "[1]; NAA 1 μM in medium", "result": 3.2, "unit": "%"},
      {"measurement": "C/B Selection efficiency", "setting": "[1]; NAA 1 μM in medium", "result": 22.2, "unit": "%"},
      {"measurement": "B Adventitious bud differentiated (number of sections)", "setting": "[1]; [4]", "result": "13 number of sections"},
      {"measurement": "C GUS + adventitious bud differentiated (number of sections)", "setting": "[1]; [4]", "result": "1 number of sections"},
      {"measurement": "B/A Redifferentiation ratio", "setting": "[1]; NAA 10 μM in medium", "result": 32.5, "unit": "%"},
      {"measurement": "C/A Gene introduction ratio", "setting": "[1]; NAA 10 μM in medium", "result": 2.5, "unit": "%"},
      {"measurement": "C/B Selection efficiency", "setting": "[1]; NAA 10 μM in medium", "result": 7.7, "unit": "%"},
      {"measurement": "B Adventitious bud differentiated (number of sections)", "setting": "[2]; additive 1 μM in medium", "result": "9 number of sections"},
      {"measurement": "C GUS + adventitious bud differentiated (number of sections)", "setting": "[2]; additive 1 μM in medium", "result": "1 number of sections"},
      {"measurement": "B/A Redifferentiation ratio", "setting": "[2]; additive 1 μM in medium", "result": 20.5, "unit": "%"},
      {"measurement": "C/A Gene introduction ratio", "setting": "[2]; additive 1 μM in medium", "result": 2.3, "unit": "%"},
      {"measurement": "C/B Selection efficiency", "setting": "[2]; additive 1 μM in medium", "result": 11.1, "unit": "%"},
      {"measurement": "B Adventitious bud differentiated (number of sections)", "setting": "[2]; additive 10 μM in medium", "result": "7 number of sections"},
      {"measurement": "C GUS + adventitious bud differentiated (number of sections)", "setting": "[2]; additive 10 μM in medium", "result": "0 number of sections"},
      {"measurement": "B/A Redifferentiation ratio", "setting": "[2]; additive 10 μM in medium", "result": 15.9, "unit": "%"},
      {"measurement": "C/A Gene introduction ratio", "setting": "[2]; additive 10 μM in medium", "result": 0.0, "unit": "%"},
      {"measurement": "C/B Selection efficiency", "setting": "[2]; additive 10 μM in medium", "result": 0, "unit": "%"}
    ]}
  ]
}
